US20080261994A1, “CYCLOPROPANE COMPOUNDS AND PHARMACEUTICAL USE THEREOF” (Japan Tobacco Inc., priority 2003, published 2008)
Where two headings read alike, the source gives them in different places.

Legend:
Type in all cases: biochemical
aggrecanase-1 = target: T1, aggrecanase-1 (Homo sapiens, UniProt O75173); test: Aggrecanase-1 inhibitory action (Particle Assay, GAG release from aggrecan-containing polyacrylamide particles)
T1 sequence (O75173 213-837): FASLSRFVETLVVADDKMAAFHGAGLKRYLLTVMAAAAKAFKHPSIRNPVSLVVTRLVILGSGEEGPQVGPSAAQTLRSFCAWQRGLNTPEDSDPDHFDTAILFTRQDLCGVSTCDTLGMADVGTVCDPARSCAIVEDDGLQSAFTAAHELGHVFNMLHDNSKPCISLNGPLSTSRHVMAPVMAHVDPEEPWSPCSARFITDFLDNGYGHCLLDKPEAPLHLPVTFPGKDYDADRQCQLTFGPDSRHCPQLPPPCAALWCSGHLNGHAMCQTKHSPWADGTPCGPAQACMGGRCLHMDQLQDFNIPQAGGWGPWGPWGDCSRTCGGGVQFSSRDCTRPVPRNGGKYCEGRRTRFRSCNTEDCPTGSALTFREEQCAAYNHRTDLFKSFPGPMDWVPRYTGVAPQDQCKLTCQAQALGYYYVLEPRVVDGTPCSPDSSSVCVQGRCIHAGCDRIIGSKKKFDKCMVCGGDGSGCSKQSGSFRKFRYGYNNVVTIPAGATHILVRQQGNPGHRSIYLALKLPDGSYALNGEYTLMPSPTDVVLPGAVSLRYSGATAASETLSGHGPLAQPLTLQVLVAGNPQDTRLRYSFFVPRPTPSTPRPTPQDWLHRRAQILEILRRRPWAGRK
In short: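 Enzyme and compound incubated with aggrecan-containing polyacrylamide particles in Tris-HCl buffer at 37° C for 15 h. Released GAG in supernatant measured with 1,9-dimethylmethylene blue at 595 nm against chondroitin sulfate standard; % inhibition from enzyme-free and inhibitor-free wells, reported as TC50 (μM).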

MMP-1 = target: T2, MMP-1 (Homo sapiens, UniProt P03956); test: MMP-1 inhibitory action (Type I collagen Activity Measurement kit, FITC-labeled collagen type I)
T2 sequence (P03956 100-469): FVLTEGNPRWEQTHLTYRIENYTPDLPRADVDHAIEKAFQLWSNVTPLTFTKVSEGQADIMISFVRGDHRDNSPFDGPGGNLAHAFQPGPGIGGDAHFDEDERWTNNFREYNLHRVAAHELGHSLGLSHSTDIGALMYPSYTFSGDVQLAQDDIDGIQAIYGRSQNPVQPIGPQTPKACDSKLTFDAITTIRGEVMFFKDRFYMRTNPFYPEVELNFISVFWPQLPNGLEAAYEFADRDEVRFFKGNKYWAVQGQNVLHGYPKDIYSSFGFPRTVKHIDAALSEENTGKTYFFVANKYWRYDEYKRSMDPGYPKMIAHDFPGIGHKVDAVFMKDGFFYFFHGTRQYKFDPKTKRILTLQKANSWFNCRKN

Recombinant Human MMP-13 = target: T3, Recombinant Human MMP-13 (Homo sapiens, UniProt P45452); test: MMP-13 inhibitory activity (MMP-13 specific fluorescent substrate with quencher)
T3 construct: purchased R&D systems 511-MM
In short: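 Recombinant human MMP-13 with test compound, reaction started with quenched fluorogenic peptide 7-MCA-Pro-CHA-Gly-NVal-His-Ala-DPA in Tris-HCl buffer, 1 h at 25 °C, stopped with acetic acid. Fluorescence at Ex 325/Em 405 nm; % inhibition versus enzyme-free and inhibitor-free wells, reported as IC50 (μM).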

[1] = aggrecanase-1 inhibitory action, read-out: IC50 AG1 (Experimental Example 1)
[2] = MMP-1 inhibitory action, FITC-labeled collagen type I, 37° C. for 3 hr, read-out: IC50 MMP1 (Experimental Example 2)
[3] = Recombinant Human MMP-13, fluorescent substrate, 25° C. for 1 h, read-out: IC50 MMP13 (Experimental Example 3)
[4] = Experimental Example 1, read-out: IC50 AG1
[5] = Experimental Example 2, read-out: IC50 MMP1
[6] = Experimental Example 3, read-out: IC50 MMP13

| SMILES | IC50 (aggrecanase-1; [1]) | IC50 (MMP-1; [2]) | IC50 (Recombinant Human MMP-13; [3]) | IC50 (aggrecanase-1; [4]) | IC50 (MMP-1; [5]) | IC50 (Recombinant Human MMP-13; [6]) |
| --- | --- | --- | --- | --- | --- | --- |
| CN(C)CCOc1ccccc1C1CC1(NS(=O)(=O)c1ccc(-c2ccc(Cl)cc2)s1)C(=O)O (stereo not drawn) [Example 2-49] | ≥ 1000 nM | ≥ 10000 nM | ≥ 10000 nM | – | – | – |
| O=C(O)[C@@]1(NS(=O)(=O)c2ccc(-c3ccc(Cl)cc3)s2)C[C@H]1c1cccc(Br)c1 [Example 2-150] | < 1000 nM | ≥ 1000 nM | < 1000 nM | – | – | – |
| C[C@]1(c2ccccc2)C[C@@]1(NS(=O)(=O)c1ccc(-c2ccc(Cl)cc2Cl)s1)C(=O)O [Example 2-566] | – | – | – | < 1000 nM | ≥ 1000 nM | ≥ 1000 nM |
| O=C(O)C1(NS(=O)(=O)c2ccc(-c3cc(C(F)(F)F)on3)s2)CC1c1cccc(CCO)c1 (stereo not drawn) [Example 2-268] | – | – | – | < 100 nM | ≥ 1000 nM | < 100 nM |
| O=C(O)C1(NS(=O)(=O)c2ccc(-c3cc(C(F)(F)F)on3)s2)CC1c1cc(CCO)on1 (stereo not drawn) [Example 2-315] | – | – | – | < 1000 nM | ≥ 10000 nM | < 1000 nM |
| CC1(C)COC(c2ccc(S(=O)(=O)N[C@@]3(C(=O)O)C[C@@H]3c3ccccc3)s2)=N1 [Example 2-54] | ≥ 1000 nM | ≥ 10000 nM | ≥ 10000 nM | – | – | – |
| COc1cccc(C2(C)CC2(NS(=O)(=O)c2ccc(-c3cc(C(F)(F)F)on3)s2)C(=O)O)c1 (stereo not drawn) [Example 2-610] | – | – | – | < 100 nM | < 1000 nM | ≥ 1000 nM |
| CC(C)(CO)NC(=O)c1cccc(C2CC2(NS(=O)(=O)c2ccc(-c3ccc(Cl)cc3)s2)C(=O)O)c1 (stereo not drawn) [Example 2-74] | < 1000 nM | ≥ 10000 nM | < 100 nM | – | – | – |
| O=C(O)C1(CS(=O)(=O)N2CCN(c3ccc(Cl)cc3)CC2)CC1c1ccccc1 (stereo not drawn) [Example 2-186] | ≥ 1000 nM | ≥ 10000 nM | ≥ 1000 nM | – | – | – |
| CN(c1ccccc1)c1ccc(S(=O)(=O)N[C@@]2(C(=O)O)C[C@]2(C)c2ccccc2)s1 [Example 2-515] | – | – | – | ≥ 1000 nM | ≥ 1000 nM | ≥ 1000 nM |
| CC1[C@H](c2ccccc2)[C@]1(NS(=O)(=O)N1CCN(C(=O)NCc2ccccc2)CC1)C(=O)O (stereo partly drawn) [Example 2-529] | – | – | – | ≥ 1000 nM | ≥ 1000 nM | ≥ 1000 nM |
| CC1[C@H](c2ccccc2)[C@]1(NS(=O)(=O)c1ccc(Br)s1)C(=O)O (stereo partly drawn) [Example 2-427] | – | – | – | ≥ 10000 nM | < 1000 nM | ≥ 1000 nM |
| CN(C)CCC(=O)Nc1cccc(C2CC2(NS(=O)(=O)c2ccc(-c3ccc(Cl)cc3)s2)C(=O)O)c1 (stereo not drawn) [Example 2-223] | < 1000 nM | ≥ 10000 nM | < 1000 nM | – | – | – |
| Cn1nc(-c2ccc(S(=O)(=O)NC3(C(=O)O)CC3c3ccccc3)s2)cc1C(F)(F)F (stereo not drawn) [Example 2-16] | ≥ 10000 nM | ≥ 10000 nM | < 1000 nM | – | – | – |
| O=C(O)C1(NS(=O)(=O)c2ccc(-c3ccc(Cl)cc3)s2)CC1c1cccc(CCO)c1 (stereo not drawn) [Example 2-109] | < 100 nM | ≥ 10000 nM | < 100 nM | – | – | – |
| NCc1ccc(C2CC2(NS(=O)(=O)c2ccc(-c3ccc(Cl)cc3)s2)C(=O)O)cc1 (stereo not drawn) [Example 2-265] | < 1000 nM | ≥ 10000 nM | < 1000 nM | – | – | – |
| CN1CCN(Cc2cccc(C3CC3(NS(=O)(=O)c3ccc(-c4ccc(Cl)cc4)s3)C(=O)O)c2)CC1 (stereo not drawn) [Example 1-103] | < 1000 nM | ≥ 10000 nM | < 1000 nM | – | – | – |
| O=C(O)C1(NS(=O)(=O)c2ccc(-c3ccc(Cl)cc3)s2)C2CCc3ccccc3C21 (stereo not drawn) [Example 2-350] | – | – | – | < 1000 nM | ≥ 1000 nM | < 100 nM |
| O=C(O)Cc1cccc(C2CC2(NS(=O)(=O)c2ccc(-c3ccc(Cl)cc3)s2)C(=O)O)c1 (stereo not drawn) [Example 2-181] | < 100 nM | ≥ 1000 nM | < 100 nM | – | – | – |
| CC(C)(C)OC(=O)NCCCC1(c2ccccc2)CC1(NS(=O)(=O)c1ccc(-c2ccc(Cl)cc2)s1)C(=O)O (stereo not drawn) [Example 2-284] | – | – | – | < 100 nM | ≥ 1000 nM | < 100 nM |
| CC1[C@H](c2ccccc2)[C@]1(NS(=O)(=O)N1CCCN(c2cccc(Cl)c2)CC1)C(=O)O (stereo partly drawn) [Example 2-471] | – | – | – | ≥ 1000 nM | ≥ 10000 nM | ≥ 1000 nM |

The next lines start with the values.

| IC50 (aggrecanase-1; [1]) | IC50 (MMP-1; [2]) | IC50 (Recombinant Human MMP-13; [3]) | IC50 (aggrecanase-1; [4]) | IC50 (MMP-1; [5]) | IC50 (Recombinant Human MMP-13; [6]) | SMILES |
| --- | --- | --- | --- | --- | --- | --- |
| < 100 nM | < 1000 nM | < 100 nM | – | – | – | CC(F)(F)c1cc(-c2ccc(S(=O)(=O)N[C@@]3(C(=O)O)C[C@@H]3c3ccccc3)s2)no1 [Example 2-84] |
| ≥ 10000 nM | ≥ 10000 nM | ≥ 10000 nM | – | – | – | O=C(O)C1(NS(=O)(=O)c2ccc(Cl)s2)CC1c1ccccc1 (stereo not drawn) [Example 2-82] |
| < 1000 nM | ≥ 1000 nM | < 1000 nM | – | – | – | CN(C)C(=O)c1ccc(C2CC2(NS(=O)(=O)c2ccc(-c3cc(C(F)(F)F)on3)s2)C(=O)O)cc1 (stereo not drawn) [Example 2-266] |
| – | – | – | < 100 nM | < 1000 nM | < 100 nM | CC1[C@H](c2ccccc2)[C@]1(NS(=O)(=O)c1ccc(-c2cc(N(C)C)on2)s1)C(=O)O (stereo partly drawn) [Example 2-419] |
| – | – | – | ≥ 1000 nM | ≥ 1000 nM | ≥ 1000 nM | CC1[C@H](c2ccccc2)[C@]1(NS(=O)(=O)N1Cc2ccc(O)cc2C1)C(=O)O (stereo partly drawn) [Example 2-548] |
| < 100 nM | ≥ 10000 nM | < 1000 nM | – | – | – | Cc1csc(-c2cccc(C3CC3(NS(=O)(=O)c3ccc(-c4ccc(Cl)cc4)s3)C(=O)O)c2)n1 (stereo not drawn) [Example 2-86] |
| – | – | – | < 100 nM | < 1000 nM | < 100 nM | O=C(O)C1(NS(=O)(=O)c2ccc(-c3ccc(Cl)cn3)s2)C2CCCc3ccccc3C21 (stereo not drawn) [Example 2-365] |
| – | – | – | ≥ 1000 nM | ≥ 10000 nM | ≥ 10000 nM | Cc1cc(N2CCN(S(=O)(=O)N[C@@]3(C(=O)O)C(C)[C@@H]3c3ccccc3)CC2=O)no1 (stereo partly drawn) [Example 2-476] |
| – | – | – | ≥ 1000 nM | ≥ 10000 nM | ≥ 1000 nM | Cc1cn(-c2ccc(S(=O)(=O)N[C@@]3(C(=O)O)C(C)[C@@H]3c3ccccc3)s2)cn1 (stereo partly drawn) [Example 2-367] |
| – | – | – | < 100 nM | < 1000 nM | < 100 nM | O=C(O)C1(NS(=O)(=O)c2ccc(-c3cc(C(F)F)on3)s2)C2CCCc3ccccc3C21 (stereo not drawn) [Example 2-383] |
| – | – | – | ≥ 1000 nM | ≥ 1000 nM | < 100 nM | CC1[C@H](c2ccccc2)[C@]1(NS(=O)(=O)c1ccc(-c2cc(C(F)(F)F)on2)s1)C(=O)NO (stereo partly drawn) [Example 2-323] |
| < 100 nM | ≥ 1000 nM | < 100 nM | – | – | – | O=C(O)C1(NS(=O)(=O)c2ccc(-c3ccc(Cl)cn3)s2)CC1c1ccccc1CO (stereo not drawn) [Example 2-63] |
| < 100 nM | ≥ 1000 nM | < 1000 nM | – | – | – | C[C@]1(c2ccccc2)C[C@@]1(NS(=O)(=O)c1ccc(-c2ccc(Cl)cc2)s1)C(=O)O [Example 2-101] |
| < 100 nM | ≥ 1000 nM | < 100 nM | – | – | – | CC(=O)OCCCC1(c2ccccc2)CC1(NS(=O)(=O)c1ccc(-c2cc(C(F)(F)F)on2)s1)C(=O)O (stereo not drawn) [Example 2-264] |
| < 1000 nM | ≥ 1000 nM | < 100 nM | – | – | – | O=C(Nc1cccc(C2CC2(NS(=O)(=O)c2ccc(-c3cc(C(F)(F)F)on3)s2)C(=O)O)c1)N1CCOCC1 (stereo not drawn) [Example 2-250] |
| – | – | – | < 100 nM | < 1000 nM | < 100 nM | CC(C)c1cc(-c2ccc(S(=O)(=O)N[C@@]3(C(=O)O)C(C)[C@@H]3c3ccccc3)s2)no1 (stereo partly drawn) [Example 2-408] |
| – | – | – | < 1000 nM | ≥ 10000 nM | < 100 nM | CN1CCN(C(=O)CCc2ccc([C@H]3C[C@@]3(NS(=O)(=O)c3ccc(-c4cc(C(F)(F)F)on4)s3)C(=O)O)cc2)CC1 [Example 2-280] |
